Reference: patent US20240400572A1, “COMPOUNDS AND METHODS FOR TREATING CANCERS THAT ARE MGMT DEFICIENT REGARDLESS OF MMR STATUS” (Yale University, priority 2021, published 2024)

Key:
[1] = system: LN229 WT and LN229-MSH2^− flank tumors; assay: Xenograft Experiments (FIG. 11); format: in vivo, mouse; conditions: 5 mg/kg gavage, Mondays, Wednesdays and Fridays for 3 weeks
Description: Xenograft Experiments (FIG. 11): All animal studies were approved by the Institutional Animal Use and Care Committee and performed in accordance with the Guide for the Care and Use of Laboratory Animals. LN229 WT and LN229-MSH2^− cell lines were maintained in DMEM media supplemented with 10% fetal bovine serum. Three-four-week-old female athymic nude Foxnnu mice were obtained from Envigo and each mouse was inoculated subcutaneously with tumor cells (4.5-5×10^6) in 0.1 ml of PBS with Matrigel (1:1). Wild type cells were injected on the right flank and mutant cells were injected on the left flank. The tumors were then grown to a mean size of approximately 50-100 mm3 and the mice were then split into groups and treated as detailed in FIG. 7. Gavage doses of 5 mg/kg of KL-50 or TMZ were prepared by diluting stocks in DMSO with 10% cyclodextrin. Compound was administered each day of dosing at a volume of 100 μL/mouse. Mice were treated for 3 weeks with dosing on Mondays, Wednesdays and Fridays. Tumors were measured 3 times a week during treatment and during the washout period of 2 weeks. Xenograft tumors were measured by calipers and volume was calculated using the equation for ellipsoid volume: Volume=0.523×(length)×(width)^2. Statistical Analysis: Analysis of variance (ANOVA) was used to test for significant differences between groups. Post-hoc Bonferroni multiple comparison test analysis was used to determine significant differences among means. All statistical analysis was accomplished using Graph Pad Prism 8.2.0 software.

[2] = system: FANCD2 ubiquitination in LN229 MGMT+/−, MMR+/− cells; assay: Western blot analysis of FANCD2 ubiquitination; format: cell-based, human
Description: FIGS. ZS9A-ZS9G. […] (FIG. ZS9A) Representative images of micronuclei identification. (FIG. ZS9B) Validation of micronuclei identification using olaparib as positive control. Change in percent cells with 1 micronuclei from baseline (DMSO control) after treatment with olaparib ([…]) for 48 h in LN229 MGMT+/−, MMR+/− cells. Columns, mean; error bars, SD; […] technical replicates; **** p<0.0001. […] (FIG. ZS9G) Western blot analysis of FANCD2 ubiquitination in LN229 MGMT+/−, MMR+/− cells and PD20 FANCD2-deficient cells, complemented with empty vector (FANCD2+EV), wildtype FANCD2 (PD20+FD2) or ubiquitination-mutant FANCD2 (PD20+KR). The % FANCD2 ubiquitination (% FANCD2 Ub.) is quantified as the background-corrected integrated band intensity of the upper band divided by the sum of the background-corrected integrated band intensities of the upper and lower bands. The fold change in % FANCD2 ubiquitination is presented for each cell line relative to DMSO-treated cells. Vinculin serves as loading control. For (FIG. ZS9D), (FIG. ZS9E), and (FIG. ZS9F), points, mean; error bars, SD; n=3 technical replicates.
Western Blotting. […] Where shown, bands were quantified using ImageJ software.

NC(=O)c1ncn2c(=O)n(CCF)nnc12 [KL-50, 3-(2-fluoroethyl)-4-oxo-3H,4H-imidazo[4,3-d][1,2,3,5]tetrazine-8-carboxamide]
activity in MGMT−/MMR (MSH2)+ tumors (in words) [1]: comparable activity to TMZ | activity in MGMT−/MMR (MSH2)− tumors (in words) [1]: surprisingly effective | FANCD2 ubiquitination (in words) [2]: specifically in MGMT− cells

Cn1nnc2c(C(N)=O)ncn2c1=O [TMZ, temozolomide, reference compound]
activity in MGMT−/MMR (MSH2)− tumors (in words) [1]: ineffective | FANCD2 ubiquitination (in words) [2]: induced FANCD2 ubiquitination but only in MGMT−/MMR+ cells
